Reference: US20200123396A1, “PRODUCTS PRESERVED WITH 5-CHLORO-2-METHYL-4-ISOTHIAZOLIN-3-ONE” (THOR GMBH, priority 2014, published 2020)

How the values were obtained:
[1] = destruction of 2-methylisothiazolin-3-one in an aqueous emulsion paint using sodium thiosulfate; assay type: physicochemical
Source text: A drawback, however, is that according to the method described, the isothiazolinones, and especially the MIT, are not destroyed quantitatively or irreversibly, and so are still always present in the products and derivatives, and may still as before cause problems to persons reacting allergically, and/or may give rise to contact eczemas or aerogenic contact eczemas in persons having a high degree of sensitization.

[2] = tested on: microorganisms introduced via the individual components of the paint; assay: microbiological investigations of the preserved emulsion paint; assay type: cell-based; details: 20 ppm of 5-chloro-2-methylisothiazolin-3-one (2-methylisothiazolin-3-one content <1 wt %) in water-based emulsion paint; growth detectable in individual components
Source text: Added to a preservative-free styrene-acrylate dispersion were 20 ppm of 5-chloro-2-methylisothiazolin-3-one, having a 2-methylisothiazolin-3-one content of <1 wt %. The styrene-acrylate dispersion thus preserved was then used for producing a water-based emulsion paint. The composition of the paint produced was as follows: • 25.7 wt % water • 0.2 wt % acrylate-based wetting and dispersing agent • 0.2 wt % mineral oil-based defoamer • 2.0 wt % water softener (sodium polyphosphate) • 0.2 wt % ammonia • 4.0 wt % titanium oxide (pigment) • 51.0 wt % calcium carbonate (filler) • 5.0 wt % talc (filler) • 0.4 wt %% cellulose ether • 2.0 wt % organic solvent for lowering the minimum film-forming temperature • 9.0 wt % the styrene-acrylate dispersion preserved with 20 ppm of 5-chloro-2-methylisothiazolin-3-one • 20 ppm 5-chloro-2-methylisothiazolin-3-one, having a 2-methylisothiazolin-3-one content of <1 wt %

[3] = decomposition of 5-chloro-2-methylisothiazolin-3-one in the emulsion paint by cysteine, HPLC; assay type: physicochemical; details: after 3 hours, addition of 50 ppm of cysteine based on the emulsion paint
Source text: In order, from the emulsion paint, which contained significant quantities of 5-chloro-2-methylisothiazolin-3-one, to produce a paint unobjectionable for allergics in relation to 5-chloro-2-methylisothiazolin-3-one and 2-methylisothiazolin-3-one present therein, to produce, these isothiazolin-3-ones were decomposed by addition of 50 ppm of cysteine, based on the emulsion paint.

Compound	destruction of 2-methylisothiazolin-3-one [1]	microbial growth in the emulsion paint [2]	detectability of 5-chloro-2-methylisothiazolin-3-one in the emulsion paint by HPLC [3]
Cn1sccc1=O [2-methylisothiazolin-3-one]	destroyed neither quantitatively nor irreversibly		
Cn1sc(Cl)cc1=O [5-chloro-2-methylisothiazolin-3-one]		no microbial growth	no longer detectable
